# Assay results reported in patent US20250312356A1, “TREATMENT OF DYSMENORRHEA” (priority 2024, published 2025).
# Like-named read-outs stand apart in the source and are kept apart here.
# Experiments:
# [1] = system: estrogen, androgen, progestin and glucocorticoid receptors; test: in vitro agonist or antagonist activity on steroid hormone receptors; assay type: biochemical
# [2] = system: rats, mice, rabbits and dogs; test: acute and multidose (28 day) toxicity studies; assay type: in vivo
# [3] = system: GABAA receptors, opioid receptors, or dopamine receptors; test: in vitro receptor binding study
# estrogen receptors = test: in vitro receptor binding study
# [4] = system: females with DSM-IV-defined PMDD; test: Phase 2a study, daily symptom report pain cluster, cramps; assay type: in vivo, human
# Source text: During a 3- to 5-week screening period, patients who presented to the clinic for bothersome PMDD symptoms (defined as “affected functioning”) were recruited. The Premenstrual Tension Syndrome scale was used for screening. After study eligibility criteria and PMDD symptom presence were confirmed at Visit 1, patients received single-blind placebo; those with no acute improvement were eligible for randomization study. Randomized patients presented for Visit 2 when PMDD symptoms were bothersome during the second cycle after entry. PH80 (0.9 μg) or placebo was administered intranasally; PMDD symptoms were evaluated 30 and 60 minutes later. Patients were then supplied with their assigned double-blind treatment for intranasal self-administration up to 4 times a day (PH80 0.9 μg/dose or matching placebo) for up to 6 consecutive days before the estimated menses onset in that cycle. On the first day of menses in the second cycle, a follow-up visit (Visit 3) occurred. 82 females were screened; 61 met eligibility criteria and were randomized to receive PH80 (n=33) or placebo (n=28). […] A total of 49 patients provided at least 1 post-treatment assessment and were included in the pain efficacy analysis.
# Pain efficacy analysis for cramping was rated daily by the patient on a 5-point scale ranging from 0 (no symptoms at all) up to 4 (very severe). The overall pain cluster score and individual symptom ratings were compared post-hoc using two-sided T-tests, without adjustments for multiplicity or within-patient variance; means for each group were plotted for each reported day, and no imputation was made for missing data. Results are summarized in Table 2 and depicted in FIG. 3.
# menopausal women = test: hot flashes after intranasal administration; assay type: in vivo, human
# Source text: (§1) 16α,17α-Epoxyestr-4-en-10β-ol-3-one decreased parasympathetic system tone resulting in increased sympathetic activity and stimulation of β2 adrenergic receptors in the bronchiole smooth muscle that induced bronchodilation; • (b) increased skin conductance amplitude is the result of increased skin secretions, which are produced by preponderance of the sympathetic nervous system tone (or decreased parasympathetic tone); • (c) decreased body temperature is explained by increased activity of the posterior (adrenergic) hypothalamus and decreased parasympathetic tone (anterior hypothalamus).
# [5] = Ames reverse mutation assay
# [6] = system: human volunteers of both sexes; test: reflex activity and physiologic parameters after intranasal administration in volunteers; assay type: in vivo; details: 1.6 μg intranasal
# Protocol: (§2) The half effective dose of this effect was 0.087 μg.
# as §1
# [7] = in vivo
# [8] = system: neurotransmitter receptors, re-uptake sites, or steroid receptors; test: in vitro receptor binding study
# [9] = system: women diagnosed with PMDD
# [10] = system: women of reproductive age; test: clinical study of core body temperature and tone of the sympathoadrenergic system; assay type: in vivo, human; details: 1.6 μg nasal spray
# Protocol: It also changed the tone of the sympathoadrenergic system (as assessed by measuring physiologic sinus arrhythmia) within 5 minutes of administration, and the effect persisted for 15 to 20 minutes.
# [11] = system: isolated human nasal chemosensory neurons; test: electrophysiological studies in isolated nasal chemosensory neurons; assay type: cell-based
# [12] = system: nasal chemosensory mucosa; test: electrogram recorded from the surface of the nasal chemosensory mucosa; assay type: in vivo, human; details: intranasal
# Protocol: as §2
# bone marrow = test: in vivo bone marrow micronucleus test
# [13] = system: women of reproductive age; test: clinical study of changes in physiological parameters; assay type: in vivo, human; details: 0.5 μg nasal spray vs vehicle, 14 women
# pregnant rabbits = test: reproductive toxicity studies; assay type: in vivo; details: intravenous doses up to 2.5 mg/kg/day during organogenesis
structure (smiles),measurement,setting,value
"C[C@]12CCC3C(CCC4=CC(=O)CC[C@]43O)C1C[C@H]1O[C@H]12 (stereo partly drawn) [16α,17α-epoxyestr-4-en-10β-ol-3-one]","agonist or antagonist activity on estrogen, androgen, progestin and glucocorticoid receptors",[1],no agonist or antagonist activity
same,"deaths, adverse clinical signs, effects on laboratory or pathology parameters",[2]; single and repeated intranasal and intravenous doses,no deaths or adverse clinical signs or effects on laboratory or pathology parameters observed
same,tolerability,"[2]; single and repeated intranasal doses (up to 100 μg/rat, 400 μg/rabbit, 600 μg/dog) and intravenous doses up to 2.5 mg/kg",well tolerated in all species tested
same,"binding to GABAA receptors, opioid receptors, or dopamine receptors",[3],does not bind
same,binding to estrogen receptors,estrogen receptors,does not bind
same,"cramps score, mean","[4]; Day 1, 0.9 μg/dose up to 4 times a day, 5-point scale 0 to 4",1.26
same,"cramps score, mean",[4]; Day 2,1.00
same,"cramps score, mean",[4]; Day 3,0.59
same,"cramps score, mean",[4]; Day 4,0.52
same,"cramps score, mean",[4]; Day 5,0.42
same,"cramps score, mean","[4]; Day 6, n=19, P=0.01 vs placebo",0.21
same,hot flashes,menopausal women,"decreased number, severity and bother of hot flashes"
same,mutagenic or clastogenic potential,[5],no evidence of mutagenic or clastogenic potential
same,body core temperature (external ear canal),[6],decreased body core temperature
same,cardiac rate,[6],no significant change
same,depth of the inspiratory cycle of respiration,[6],significantly increased amplitude
same,latency of modulation of reflex activity after electrogram,[6],5 to 10 s
same,respiration rate,[6],decreased respiration rate within physiologic range
same,"skeletal muscle tone (electromyogram, chin muscles)",[6],decreased skeletal muscle tone (relaxation)
same,skin conductance (electrodermal activity),[6],increased amplitude
same,systemic exposure,[7],lack of systemic exposure
same,"binding to neurotransmitter receptors, re-uptake sites, or steroid receptors",[8],no binding
same,"cortical behavioral symptoms (headache, tension)",[9]; 0.9 μg intranasal aerosol,significant improvements
same,"hypothalamic behavioral symptoms (fatigue, anger, craving for foods)",[9]; 0.9 μg intranasal aerosol,significant improvements
same,"limbic system behavioral symptoms (mood swings, depression, lack of interest)",[9]; 0.9 μg intranasal aerosol,significant improvements
same,mean cramping score,"[9]; Day 1, 29 women, scale 0 to 4",1.19
same,mean headache score,"[9]; Day 1, scale 0 to 4",1.14
same,difference in mean cramping scores vs placebo,"[9]; Day 4, p<0.05, one-tail test",significant
same,difference in mean headache scores vs placebo,"[9]; Day 5, p<0.05, one-tail test",significant
same,share of group reporting cramping symptoms,[9]; Day 6,17%
same,mean cramping score,"[9]; Day 6, scale 0 to 4",0.24
same,mean headache score,"[9]; Day 6, scale 0 to 4",0.28
same,persistence of improvements,[9]; single dose intranasal,approximately 5 hours
same,time to appearance of improvements,[9]; single dose intranasal,≤ 30 min
same,serious adverse events,[9]; up to 4 times daily,No serious adverse events were reported
same,side effects,[9]; up to 4 times daily,minimal and similar to administration of placebo
same,decrease in core body temperature,[10],1±0.23 °C
same,latency of decrease in core body temperature,[10],0.5 to 4 min
same,persistence of decrease in core body temperature,[10],9 ± 2.5 min
same,persistence of effect on tone of the sympathoadrenergic system,[10],15 to 20 min
same,time to change of tone of the sympathoadrenergic system (physiologic sinus arrhythmia),[10],≤ 5 minutes
same,concentration giving maximal response (amplitude),[11]; concentration-dependent amplitude,10^−7 to 10^−6 M
same,inward currents,[11]; isolated human nasal chemosensory neurons,induced inward currents
same,electrotonic depolarization of the nasal septal chemosensory mucosa,[11]; nasal septal chemosensory mucosa,electrotonic depolarization of the nasal septal chemosensory mucosa
same,half effective dose of electrogram activation,[12],0.087 µg
same,activation of the electrogram,[12]; microgram quantities,concentration dependent activation
same,mutagenic or clastogenic potential,bone marrow,no evidence of mutagenic or clastogenic potential
same,cardiac frequency,[13],not statistically significant increase
same,core body temperature,[13],statistically significant decreases
same,galvanic skin reflex,[13],statistically significant decreases
same,respiratory frequency,[13],statistically significant decreases
same,skeletal muscle tone,[13],statistically significant decreases
same,effects on maternal or litter parameters,pregnant rabbits,no adverse effects on maternal or litter parameters
